PMC4207131, “Cyclic Adenosine 5′-Diphosphate Ribose Analogs without a “Southern” Ribose Inhibit ADP-ribosyl Cyclase–Hydrolase CD38” (Journal of Medicinal Chemistry, 2014)
Entries after “also recorded” stand apart in the source; their conditions may differ. Read-outs that look alike come from different tables or passages of the source. Blank lines part the entries; values can stand above or below the compound they belong to.

How the values were obtained:
[1] = tested on: Ca^2+-release in permeabilized T-cells; set-up: method as in PMID 12932045, PMID 19492987; conditions: cited from earlier work
[2] = cited from earlier work
[3] = biological target: T1, CD38 catalytic domain (shCD38) (Homo sapiens, UniProt P28907, N100D/N164A/N209D/N219D); experiment: Inhibition of shCD38-mediated cADPR hydrolysis (fluorimetric cycling assay); format: biochemical; set-up: incubating 1 μM cADPR with 1 μg/mL CD38 catalytic domain for 10 min; made in house; conditions: 1 μM cADPR, 1 μg/mL CD38 catalytic domain, 10 min, 20–24 °C, 25 mM sodium acetate pH 4.5
T1 sequence (P28907 43-300 N100D/N164A/N209D/N219D limits assumed): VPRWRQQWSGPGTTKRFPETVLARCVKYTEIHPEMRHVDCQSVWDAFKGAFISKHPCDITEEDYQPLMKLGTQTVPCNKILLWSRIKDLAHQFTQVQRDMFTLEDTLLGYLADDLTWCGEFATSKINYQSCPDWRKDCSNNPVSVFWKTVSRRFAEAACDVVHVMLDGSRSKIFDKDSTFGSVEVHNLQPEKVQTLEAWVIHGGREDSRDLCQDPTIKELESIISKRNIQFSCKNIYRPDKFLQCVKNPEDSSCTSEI
Method: The inhibition of cADPR hydrolysis by various concentrations of analog (0–1 mM) was determined by incubating 1 μM cADPR with 1 μg/mL CD38 catalytic domain for 10 min at 20–24 °C in 25 mM sodium acetate, pH 4.5. The reaction was stopped by the addition of 150 mM HCl. The precipitated protein was filtered, and the pH was neutralized with Tris base. After the mixture was diluted 20-fold, the concentration of the unhydrolyzed cADPR present in the diluted reaction mixture was assayed by the fluorimetric cycling assay as described previously.[52]

[4] = biological target: T1, CD38 catalytic domain (shCD38); experiment: RP-HPLC study of ligand hydrolysis by shCD38; conditions: for hydrolysis by shCD38 at high concentration / time to 50% hydrolysis: shCD38 4 mg/mL; for hydrolysis by shCD38 at high concentration / hydrolysis by shCD38 at enzyme assay concentration / time to 50% hydrolysis: ligand 1 mM; for hydrolysis by shCD38 at enzyme assay concentration: shCD38 1 μg/mL; for time to 50% hydrolysis: Tris-HCl pH 8, room temperature
Method: Incubation of 7 (1 mM final concentration) with 4 mg/mL shCD38 was monitored using RP-HPLC.
Therefore, further HPLC experiments were carried out using shCD38 concentrations of 1 μg/mL and either cIDPR or 7 to observe the effect of CD38 under conditions that reflect the enzyme assay (Supporting Information, Figure S3).
The solution containing the CD38 catalytic domain was adjusted to the desired concentration using Tris-HCl buffer (20 mM, pH 8), and 50 μL therefrom was added to the inhibitor (0.05 μmol) in an Eppendorf tube at room temperature. At a given time point, a sample of 5 μL was removed and diluted with 95 μL of Milli-Q water. Then 10 μL of this sample was injected directly into the analytical HPLC system (see section General in Experimental Section), eluting at 1 mL/min with an isocratic ion-pair buffer: 0.17% (m/v) cetrimide and 45% (v/v) phosphate buffer (pH 6.4) in MeOH.

[5] = cited from earlier work; remark: listed apart in the source
[6] = biological target: T1, CD38 catalytic domain (shCD38); set-up: incubating 1 μM cADPR with 1 μg/mL CD38 catalytic domain for 10 min; made in house; conditions: equivalent 8-substituted cIDPRs; read-out: IC50, inhibition of shCD38-mediated cADPR hydrolysis; cited from earlier work

Structure (SMILES): O=c1c2nc(Br)n3c2ncn1[C@@H]1O[C@H](COP(=O)(O)OP(=O)(O)OC[C@H]2O[C@@H]3[C@H](O)[C@@H]2O)[C@@H](O)[C@H]1O [compound 3]
Ca2+-release agonism, membrane permeant [1]: stable membrane permeant agonist of Ca^2+ release
chemical and biological stability [2]: Chemically and biologically stable

IC50 [3]: 6.4 µM
Structure (SMILES): [N-]=[N+]=Nc1nc2c(=O)n3cnc2n1CCCCOP(=O)(O)OP(=O)(O)OC[C@H]1O[C@@H]3[C@H](O)[C@@H]1O [compound 6, N1-Cyclic-8-azidohypoxanthine-N9-hydroxybutyl Diphosphate Ribose]

Structure (SMILES): O=c1c2nc(Br)n3c2ncn1[C@@H]1O[C@H](COP(=O)(O)OP(=O)(O)OCCCC3)[C@@H](O)[C@H]1O [compound 5, N1-Cyclic-8-bromohypoxanthine-N9-hydroxybutyl Diphosphate Ribose]
IC50 [3]: 27 µM
hydrolysis by shCD38 at high concentration [4]: hydrolyzed by the enzyme at 4 mg/mL but at a slower rate than 7

Structure (SMILES): O=c1c2ncn3c2ncn1[C@@H]1O[C@H](COP(=O)(O)OP(=O)(O)OCCCC3)[C@@H](O)[C@H]1O [compound 4, N1-Cyclic Hypoxanthine-N9-hydroxybutyl Diphosphate Ribose]
hydrolysis by shCD38 at high concentration [4]: hydrolyzed by the enzyme at 4 mg/mL but at a slower rate than 7

Structure (SMILES): N=c1c2ncn3c2ncn1[C@@H]1C[C@H](COP(=O)(O)OP(=O)(O)OC[C@H]2O[C@@H]3[C@H](O)[C@@H]2O)[C@@H](O)[C@H]1O [cADPcR, cyclic adenosine 5′-diphosphate carbocyclic ribose]
pKa of the N6-amino dissociation [5]: 8.9

Structure (SMILES): O=c1c2ncn3c2ncn1[C@@H]1O[C@H](COP(=O)(O)OP(=O)(O)OC[C@H]2O[C@@H]3[C@H](O)[C@@H]2O)[C@@H](O)[C@H]1O [compound 2, N1-cyclic inosine 5′-diphosphate ribose]
hydrolysis by shCD38 at enzyme assay concentration ([4]; listed as cIDPR): neither cIDPR (2) or 8-NH2-N9-butyl-; also recorded: not hydrolyzed
hydrolysis by shCD38 at high concentration [4]: hydrolyzed by the enzyme at 4 mg/mL but at a slower rate than 7
time to 50% hydrolysis [4]: 420 min
Ca2+-release agonism ([1]; permeabilized T-cells): agonist for Ca^2+-release with almost equivalent potency to cADPR
ionization over the pH range [5]: no ionization between 6.8 and 10.9
chemical and biological stability [2]: Chemically and biologically stable

Structure (SMILES): Nc1nc2c(=O)n3cnc2n1C1OC(COP(=O)(O)OP(=O)(O)OCC2OC3C(O)C2O)C(O)C1O (stereo not drawn) [8-NH2-cIDPR]
IC50 [6]: 56 µM

Structure (SMILES): Nc1nc2c(=O)n3cnc2n1CCCCOP(=O)(O)OP(=O)(O)OC[C@H]1O[C@@H]3[C@H](O)[C@@H]1O [compound 7, N1-Cyclic-8-aminohypoxanthine-N9-hydroxybutyl Diphosphate Ribose]
IC50 [3]: 3.3 µM
change of the ligand peak in the control without shCD38 ([4]; parallel control containing no shCD38): no change in the original peak
hydrolysis by shCD38 at enzyme assay concentration [4]: not hydrolyzed
hydrolysis by shCD38 at high concentration [4]: faster hydrolysis
time to 50% hydrolysis [4]: 105 min

Structure (SMILES): N=c1c2ncn3c2ncn1[C@@H]1O[C@H](COP(=O)(O)OP(=O)(O)OC[C@H]2O[C@@H]3[C@H](O)[C@@H]2O)[C@@H](O)[C@H]1O [cADPR, Cyclic adenosine 5′-diphosphate ribose]
pKa of the N6-amino form [5]: 8.3
hydrolysis at the N1 link ([2]; neutral aqueous solution and physiological conditions): hydrolyzed at the N1 link in both neutral aqueous solution and under physiological conditions
